Results published in US20130336988A1, “METHODS FOR TREATING EARLY STAGE OR MILD NEUROLOGICAL DISORDERS” (NEW YORK UNIVERSITY, priority 2010, published 2013).
Values belong to the molecule of their own block, whether it stands above or below them.

What was measured:
[1] = test system: E15 DIV3 mouse hippocampal neurons; assay: proNT-induced growth cone collapse in cultured hippocampal neurons (live imaging and immunofluorescence); type: cell-based; conditions: for growth cone collapse: p75NTR-positive cells, 20 min exposure, 10 ng/ml proNGF, 10 ng/ml proBDNF with K252a, 5 ng/ml NGF
Experimental: To assay which pathways are involved in filopodial collapse, 5-10 ng/ml proNGF, 10 ng/ml proBDNF, 25-50 ng/ml BDNF (Peprotech) or 25-100 ng/ml NGF (Harlan) was added to E15 primary hippocampal neurons for 20 min before fixation. In some cases, cells were pretreated with 100 nM K-252a (Calbiochem) for 20 min, 100 nM Gö6976 (Calbiochem) for 1 hour, 5 μM EHT1864 (Sigma) for 30 min or 100 nM ITX3 (ChemBridge Corporation, cat. no. 6007262) for 45 min. To block SorCS2, cells were incubated with 20 μg/ml anti-SorCS2 or control IgG for 20 min on ice before proNGF addition at 37° C.
DIV3 hippocampal neurons were fixed in 4% paraformaldehyde/20% sucrose for 10 min. The fixative was quenched with 50 mM NH4Cl in PBS for 5 min and cells were permeabilized with 0.1% TritonX-100 in PBS for 2 min. Alternatively, cells were fixed with ice-cold methanol for 5 min. Coverslips were blocked with 10% normal donkey serum, 2% bovine serum albumin and 0.25% fish skin gelatin in Tris-buffered saline for 30 min, incubated with primary antibodies diluted in blocking solution for 30 min, washed three times with Tris-buffered saline/0.25% fish skin gelatin, incubated with secondary antibodies mixed with Hoechst in blocking buffer for additional 30 min, washed and mounted using Mowio1488. Cells were imaged using a LSM510 laser-scanning confocal microscope equipped with a 40× Plan Neofluor NA1.3 DIC oil-immersion objective (Carl Zeiss Microimaging). Images were processed using LSM510 software (Zeiss) and ImageJ (NIH).
Cells were plated on gridded glass bottom dishes (MatTek Corporation) and imaged at DIV3 in phenol red-free Neurobasal medium (Invitrogen) supplemented with 30 mM HEPES-NaOH, pH7.4 using an Olympus IX71 inverted microscope driven by IPLab software (BD Biosciences) and equipped with a 60× PlanApoN objective (NA 1.42), a Hamamatsu EM-CCD camera and a heated stage maintained at 37° C., or driven by softWoRX software (version 3.7.1, DeltaVision), and equipped with a CoolSnap HQ2 camera (Photometrics) and an environmental chamber maintained at 37° C. Images were taken every 15 seconds. After live imaging cells were fixed, counterstained for p75, located by grid number and examined for p75 expression. All movies were exported and processed using IPLab (BD Biosciences), softWoRX (version 3.7.1, DeltaVision) and ImageJ (NIH) software. Filopodia length and speed were both analyzed using ImageJ (NIH) software. For this, two times ten consecutive frames, spaced 5-10 min apart, were analyzed before and again after treatment. In the length analysis, a line was drawn along an individual filopodium and measured at every time point, and the measurements were averaged before and after treatment. For the speed analysis, the filopodial tip was tracked using the ImageJ Manual Tracking plugin. Up to four individual filopodia were analyzed per movie, and a minimum of four movies taken from separate experiments were analyzed per condition.
Primary hippocampal and cortical neurons were isolated from E15 C57BL/6 mouse embryos as previously described (PEREIRA, D. B. et al., Journal of Neuroscience 27:4859-4869 (2007)). Briefly, neurons were dissociated by incubation with 0.05% trypsin at 37° C. for 8 min followed by trituration with fire-polished glass Pasteur pipettes. Cells were plated on poly-D-lysine coated dishes and grown in Neurobasal medium containing B27, 0.5 mM glutamine (all Invitrogen) and 10 μM 5-fluorodeoxyuridine. Hippocampal neurons were transfected at DIV2 using Lipofectamine2000 (Invitrogen). For coverslips in a 24-well plate, 0.5 μg plasmid were mixed with 0.5 μl Lipofectamine2000, and for glass bottom dishes, 1.5 μg plasmid were mixed with 1.5 μl Lipofectamine2000. The complexes were added to the cells for 30-45 min, and then neurons were placed back into preconditioned media until analysis the following day. […]

p75^NTR/SorCS2 and Trio = biological target: T1, p75^NTR/SorCS2 and Trio (Homo sapiens, UniProt P08138+Q96PQ0); assay: Co-immunoprecipitation of Trio with p75NTR/SorCS2 after proNT treatment of HT1080 cells; type: cell-based; conditions: HT1080 cells expressing p75NTR and SorCS2; 20 min incubation; IP anti-p75NTR, Western blot
T1 construct: HA; expressed in transfected cells; host or cells: HT-1080 cells
Experimental: HT-1080 cells were transfected with HA-p75^NTR and myc-SorCS2. 24-48 hours later, cells were treated with 25 ng/ml proNGF for 20 min where indicated. Cells were lysed with lysis buffer (50 mM Tris-HCl pH 8.0, 140 mM NaCl, 2 mM EDTA, 1% NP40, 10% glycerol) supplemented with protease inhibitors and complexes were immunoprecipitated using anti-HA agarose. To map the Trio domain required for the interaction with p75^NTR, 293T cells were transfected with HA-p75^NTR and constructs of the individual Trio domains. After 24 hours, cells were lysed as described above, and complexes were immunoprecipitated using anti-HA agarose or anti-Myc agarose as indicated.

[2] = test system: Cortical neurons expressing p75^NTR; assay: Growth cone collapse in cortical neurons; type: cell-based, mouse; conditions: cortical neurons expressing p75NTR (not shown)
Experimental: Primary hippocampal and cortical neurons were isolated from E15 C57BL/6 mouse embryos as previously described (PEREIRA, D. B. et al., Journal of Neuroscience 27:4859-4869 (2007)). Briefly, neurons were dissociated by incubation with 0.05% trypsin at 37° C. for 8 min followed by trituration with fire-polished glass Pasteur pipettes. Cells were plated on poly-D-lysine coated dishes and grown in Neurobasal medium containing B27, 0.5 mM glutamine (all Invitrogen) and 10 μM 5-fluorodeoxyuridine. Hippocampal neurons were transfected at DIV2 using Lipofectamine2000 (Invitrogen). For coverslips in a 24-well plate, 0.5 μg plasmid were mixed with 0.5 μl Lipofectamine2000, and for glass bottom dishes, 1.5 μg plasmid were mixed with 1.5 μl Lipofectamine2000. The complexes were added to the cells for 30-45 min, and then neurons were placed back into preconditioned media until analysis the following day. HT1080 cells were grown in DMEM/10% fetal bovine serum (both Invitrogen) and transfected using the AMAXA nucleofector (Lonza) according to manufacturer's instructions. 293FT cells were grown in DMEM/10% fetal bovine serum and transfected with Lipofectamine2000 according to manufacturer's instructions.

T1 sequence (P08138 29-427): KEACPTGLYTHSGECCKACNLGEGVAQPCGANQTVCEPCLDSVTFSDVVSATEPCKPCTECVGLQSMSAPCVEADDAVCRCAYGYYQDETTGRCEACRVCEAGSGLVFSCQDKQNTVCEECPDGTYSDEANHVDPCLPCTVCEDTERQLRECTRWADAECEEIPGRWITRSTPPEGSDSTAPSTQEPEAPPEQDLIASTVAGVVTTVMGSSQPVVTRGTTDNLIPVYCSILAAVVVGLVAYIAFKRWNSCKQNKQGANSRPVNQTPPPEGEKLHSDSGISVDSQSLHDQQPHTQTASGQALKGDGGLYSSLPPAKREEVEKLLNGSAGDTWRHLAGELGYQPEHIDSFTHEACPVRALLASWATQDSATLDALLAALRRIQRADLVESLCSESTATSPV
T1 sequence (Q96PQ0 70-1159 limits assumed): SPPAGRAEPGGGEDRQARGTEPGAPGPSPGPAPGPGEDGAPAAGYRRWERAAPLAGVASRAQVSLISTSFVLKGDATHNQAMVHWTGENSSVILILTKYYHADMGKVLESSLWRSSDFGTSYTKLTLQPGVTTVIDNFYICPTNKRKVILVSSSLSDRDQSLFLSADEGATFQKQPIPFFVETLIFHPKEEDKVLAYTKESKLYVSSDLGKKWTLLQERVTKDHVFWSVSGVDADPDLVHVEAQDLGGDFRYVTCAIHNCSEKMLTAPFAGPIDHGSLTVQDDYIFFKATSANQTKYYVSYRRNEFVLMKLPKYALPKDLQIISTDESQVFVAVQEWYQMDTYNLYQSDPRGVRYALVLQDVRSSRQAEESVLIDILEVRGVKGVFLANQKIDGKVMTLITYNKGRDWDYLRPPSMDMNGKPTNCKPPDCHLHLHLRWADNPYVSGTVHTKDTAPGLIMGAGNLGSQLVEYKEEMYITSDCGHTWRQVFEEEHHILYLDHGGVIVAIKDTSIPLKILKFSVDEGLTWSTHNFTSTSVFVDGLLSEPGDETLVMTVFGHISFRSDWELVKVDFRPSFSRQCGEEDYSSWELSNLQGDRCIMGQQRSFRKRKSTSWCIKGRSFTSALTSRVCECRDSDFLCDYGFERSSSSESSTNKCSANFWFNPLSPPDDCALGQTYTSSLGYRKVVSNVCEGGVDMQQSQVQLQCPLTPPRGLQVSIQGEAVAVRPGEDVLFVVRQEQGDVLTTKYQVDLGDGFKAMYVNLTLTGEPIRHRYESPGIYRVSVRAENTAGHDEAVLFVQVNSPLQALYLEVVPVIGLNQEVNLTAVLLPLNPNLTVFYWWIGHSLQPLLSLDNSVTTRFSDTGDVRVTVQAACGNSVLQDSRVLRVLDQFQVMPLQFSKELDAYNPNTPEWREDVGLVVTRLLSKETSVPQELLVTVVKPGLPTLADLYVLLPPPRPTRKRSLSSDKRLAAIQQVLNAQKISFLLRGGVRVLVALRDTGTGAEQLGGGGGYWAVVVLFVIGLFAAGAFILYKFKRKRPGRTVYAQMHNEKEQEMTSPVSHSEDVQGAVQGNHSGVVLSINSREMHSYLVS

interaction between p75NTR/SorCS2 and Trio (p75^NTR/SorCS2 and Trio): markedly reduced the interaction
Molecule: proNGF: proneurotrophin precursor of nerve growth factor, produced in Sf9 cells and purified
growth cone collapse in neurons from p75NTR-/- mice ([1]; live imaging of LifeAct-RFP transfected neurons from p75 null mice (not shown)): growth cone collapse was never observed
localisation of endogenous Trio ([1]; p75NTR-positive E15 DIV3 hippocampal neurons, immunostaining): redistribution of Trio along the neuritis
growth cone collapse [1]: comparable in inducing growth cone collapse
growth cone collapse in cortical neurons [2]: displayed growth cone collapse

interaction between p75NTR/SorCS2 and Trio (p75^NTR/SorCS2 and Trio): markedly reduced the interaction
B1: proBDNF: murine proBDNF collected from supernatants of transfected 293 cells (protein)
chain: APMKEVNVHGQGNLAYPGVRTHGTLESVNGPRAGSRGLTTTSLADTFEHVIEELLDEDQKVRPNEENHKDADLYTSRVMLSSQVPLEPPLLFLLEEYKNYLDAANMSMRVRRHSDPARRGELSVCDSISEWVTAADKKTAVDMSGGTVTVLEKVPVSKGQLKQYFYETKCNPMGYTKEGCRGIDKRHWNSQCRTTQSYVRALTMDSKKRIGWRFIRIDTSCVCTLTIKRGR
growth cone collapse [1]: comparable in inducing growth cone collapse
